According to ChEMBL document CHEMBL1129549, “Complexes of HIV-1 reverse transcriptase with inhibitors of the HEPT series reveal conformational changes relevant to the design of potent non-nucleoside inhibitors” (J Med Chem, 1996):

Target: Human immunodeficiency virus type 1 reverse transcriptase (Human immunodeficiency virus 1, UniProt Q72547)
Assay: Inhibitory activity against HIV-1 reverse transcriptase

SMILES | IC50
Cc1c(Sc2ccccc2)n(COCCO)c(=O)[nH]c1=O [HEPT] | 17 µM
CC(C)c1c(Cc2ccccc2)n(COCc2ccccc2)c(=O)[nH]c1=O | 0.006 µM
